Structures can show the parent of a compound that is named as a salt.
These compounds were tested against T1, human D2 receptor (Homo sapiens, UniProt P14416) (assay: D2 receptor radioligand binding assay (membranes of HEK-293 cells expressing human D2 receptor)). Conditions: radioligand displacement, HEK293 membranes, 37° C. for 120 minutes; read-out: Affinity Score (IC50 values for D2 on a scale of 1 through 5).
T1 construct: expressed in transfected cells; cDNA from Origene clones TC308892 and SC123573
T1 sequence (P14416 whole entry): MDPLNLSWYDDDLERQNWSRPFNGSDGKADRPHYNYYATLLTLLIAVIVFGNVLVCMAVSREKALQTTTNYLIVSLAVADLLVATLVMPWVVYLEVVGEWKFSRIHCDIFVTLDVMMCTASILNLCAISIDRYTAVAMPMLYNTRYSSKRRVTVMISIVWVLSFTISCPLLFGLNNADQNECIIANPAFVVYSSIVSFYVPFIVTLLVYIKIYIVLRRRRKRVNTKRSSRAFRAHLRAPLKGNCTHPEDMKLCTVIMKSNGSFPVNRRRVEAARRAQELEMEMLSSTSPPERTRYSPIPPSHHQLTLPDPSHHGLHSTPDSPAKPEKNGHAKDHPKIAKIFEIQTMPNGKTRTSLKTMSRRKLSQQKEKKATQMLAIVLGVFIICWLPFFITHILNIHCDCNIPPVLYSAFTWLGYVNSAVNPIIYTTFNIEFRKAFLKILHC
Protocol: Affinity for the dopamine D2 receptor was tested in vitro, and the following describes the construction of cell lines expressing human D2 receptor, as well as the binding assays themselves.
Establishment of Stable Cell Lines Expressing Either the Cloned Human D2S Receptor or the Cloned Human D2L Receptor.
The human D2 receptor exists in two isoforms: the short form (D2S) and the long form (D2L). The two isoforms are generated from the D2 gene by alternative splicing and the D2L isoform differs from the D2S isoform by the addition of 29 amino acids in the third intracellular loop of its protein structure.
To establish HEK-293 cell lines stably expressing either the human D2S or the human D2L, the human dopamine D2S receptor (Genebank Accession Number NM_016574) and human dopamine D2L receptor (Genebank Accession Number BC021195) were amplified by PCR from Origene cDNA clones TC308892 and SC123573 (respectively) using the following primers: 5-[…]-3 (SEQ ID NO: 1) sense and 5-[…]-3 (SEQ ID NO: 2) antisense. The resulting PCR products were respectively cloned into pENTR-D-TOPO (Invitrogen), sequenced and then transferred into the pCDNA3.2-DEST (Invitrogen) using the LR-clonasc gateway reaction (Invitrogen) and sequenced again to verify the genes sequence.
HEK293 cells were maintained in Eagles Minimum Essential Medium (MEM) supplemented with 0.292 g/L L-glutamine and 10% (v/v) fetal calf serum at 37° C. in a 5% CO2 humidified atmosphere. Cells were grown to 60-80% confluency in 10 cm dishes before transfection. Transfection of the D2S and D2L containing pcDNA3.2-DEST into HEK-293 cells were performed using Lipofectamine 2000 (Invitrogen). Transfected cells were seeded and diluted 2 days after transfection and maintained in culture medium supplemented with 500 μg/mL G418. The HEK-293 cell line expressing the huD2S (R2D2S) and the huD2L (R2D2L) were maintained in culture medium supplemented with 500 μg/mL G418.
D2 Receptor Binding Assays
HEK293 cells were in Eagles Minimum Essential Medium (MEM) supplemented with 10% FBS, 0.292 g/liter L-glutamine, 10^5 units/liter penicillin, 100 mg/liter streptomycin and […] Geneticin at 37° C. in a 5% CO2 humidified atmosphere. Cells were grown to 80-90% confluence and harvested with cell stripper (Cellgro #25-056-CI). Cells were then washed with PBS (2×). Cells were either pelleted and frozen at −80° C. or membranes were prepared immediately.
Cells from pellet were resuspended in homogenization buffer (15 mM Tris*HCl, 2 mM MgCl2*6H2O, 0.3 mM EDTA, 1 mM EGTA pH 7.4 @ 4° C.). Cells were then homogenized using a Polytron (PT 1200) homogenizer at setting 6 for 10 seconds. Crude membranes were pelleted at 39, 412 g for 15 min, at 4° C. (2×) in a Sorval RC6 plus centrifuge. Membranes were finally resuspended in resuspension buffer (50 mM Tris*HCl, 120 mM NaCl, 10 mM MgCl2*6H2O, 1 mM EDTA pH 7.4 @ 4° C.) and sonicated (Fisher Sonic Dismembrator) at setting 5 for 10 seconds.
The radioligand binding assays were conducted in microtiter plates (Costar #3961) with a final volume of 1.0 mL.
The membranes were thawed at room temperature, briefly homogenized using a sonicator, diluted in assay buffer and kept on wet ice until being added to the assay plate. Membranes were diluted to a final target tissue concentration of 10 μg protein per well. The specific binding should be greater than 80% with less than 10% total radioligand bound to minimize ligand depletion errors.
First compound of the invention (50 μL) or assay buffer (50 mM Tris*HCl, 120 mM NaCl, 5 mM MgCl2*6H2O, 1 mM EDTA, 5 mM KCl pH 7.4 @37° C. plus 0.025% BSA), buffer (700 μL) and then membrane (200 μL) were added to the deep well assay plate, which was then shaken for 10 minutes. Finally, radioligand (50 μL) was added.
The assay plates were incubated at 37° C. for 120 minutes.
The assay plate were filtered over 0.3% PEI pretreated glass fiber filtermats (GF/C) using a Packard Filtermate cell harvester. […]

SMILES	IC50 [nM]
O=C(O)[C@H](c1ccccc1)N1CN(c2ccccc2)C2(CCN(CCCn3c(=O)[nH]c4ccccc43)CC2)C1=O [Compound 40, (S)-2-(4-oxo-8-(3-(2-oxo-2,3-dihydro-1H-benzo[d]imidazol-1-yl)propyl)-1-phenyl-1,3,8-triazaspiro[4.5]decan-3-yl)-2-phenylacetic acid]	< 10
O=C(O)c1cccc(CN2CN(c3ccc(F)cc3)C3(CCN(CCCn4c(=O)[nH]c5ccccc54)CC3)C2=O)c1 [Compound 43, 3-((1-(4-Fluorophenyl)-4-oxo-8-(3-(2-oxo-2,3-dihydro-1H-benzo[d]imidazol-1-yl)propyl)-1,3,8-triazaspiro[4.5]decan-3-yl)methyl)benzoic acid]	< 10
O=C(O)c1cccc(CN2CN(c3ccccc3)C3(CCN(CCCn4c(=O)sc5ccccc54)CC3)C2=O)c1 [Compound 52, 3-((4-Oxo-8-(3-(2-oxobenzo[d]thiazol-3(2H)-yl)propyl)-1-phenyl-1,3,8-triazaspiro[4.5]decan-3-yl)methyl)benzoic acid]	< 10
COc1ccc(N2CN(Cc3cccc(C(=O)O)c3)C(=O)C23CCN(CCCn2c(=O)[nH]c4ccccc42)CC3)cc1 [Compound 56, 3-((1-(4-Methoxyphenyl)-4-oxo-8-(3-(2-oxo-2,3-dihydro-1H-benzo[d]imidazol-1-yl)propyl)-1,3,8-triazaspiro[4.5]decan-3-yl)methyl)benzoic acid]	< 10
COC(=O)c1cccc(CN2CN(c3ccccc3)C3(CCN(CCCc4c[nH]c5ccccc45)CC3)C2=O)c1 [Compound 57, methyl 3-((8-(3-(1H-indol-3-yl)propyl)-4-oxo-1-phenyl-1,3,8-triazaspiro[4.5]decan-3-yl)methyl)benzoate]	< 10
O=C(O)CCCC(c1ccccc1)N1CN(c2ccccc2)C2(CCN(CCCn3c(=O)[nH]c4ccccc43)CC2)C1=O (stereo not drawn) [Compound 69, 5-(4-Oxo-8-(3-(2-oxo-2,3-dihydro-1H-benzo[d]imidazol-1-yl)propyl)-1-phenyl-1,3,8-triazaspiro[4.5]decan-3-yl)-5-phenylpentanoic acid]	< 10
O=C(O)CC(c1ccccc1)N1CN(c2ccccc2)C2(CCN(CCCn3c(=O)[nH]c4ccccc43)CC2)C1=O (stereo not drawn) [Compound 70, 3-(4-Oxo-8-(3-(2-oxo-2,3-dihydro-1H-benzo[d]imidazol-1-yl)propyl)-1-phenyl-1,3,8-triazaspiro[4.5]decan-3-yl)-3-phenylpropanoic acid]	< 10
O=C(O)c1cccc(CN2CN(c3ccccc3)C3(CCN(CCCN4C(=O)COc5ccccc54)CC3)C2=O)c1 [Compound 71, 3-((4-Oxo-8-(3-(3-oxo-2H-benzo[b][1,4]oxazin-4(3H)-yl)propyl)-1-phenyl-1,3,8-triazaspiro[4.5]decan-3-yl)methyl)benzoic acid]	< 10
O=C(O)c1cccc(CN2CN(C3CCCCC3)C3(CCN(CCCn4c(=O)[nH]c5ccccc54)CC3)C2=O)c1 [Compound 72, 3-((1-cyclohexyl-4-oxo-8-(3-(2-oxo-2,3-dihydro-1H-benzo[d]imidazol-1-yl)propyl)-1,3,8-triazaspiro[4.5]decan-3-yl)methyl)benzoic acid, formate]	< 10
O=C(O)c1cccc(CN2CN(c3ccccc3)C3(CCN(CC4COc5ccccc5O4)CC3)C2=O)c1 (stereo not drawn) [Compound 76, 3-((8-((2,3-Dihydrobenzo[b][1,4]dioxin-2-yl)methyl)-4-oxo-1-phenyl-1,3,8-triazaspiro[4.5]decan-3-yl)methyl)benzoic acid]	< 10
O=C(O)c1cccc(CN2CN(c3ccccc3)C3(CCN(CCCn4nnc5ccccc54)CC3)C2=O)c1 [Compound 85, 3-((8-(3-(1H-Benzo[d][1,2,3]triazol-1-yl)propyl)-4-oxo-1-phenyl-1,3,8-triazaspiro[4.5]decan-3-yl)methyl)benzoic acid]	< 10
O=C(O)c1cccc(CN2CN(c3ccccc3)C3(CCN(CCCN4C(=O)Cc5ccccc54)CC3)C2=O)c1 [Compound 89, 3-((4-oxo-8-(3-(2-oxoindolin-1-yl)propyl)-1-phenyl-1,3,8-triazaspiro[4.5]decan-3-yl)methyl)benzoic acid, hydrochloride]	< 10
O=C(O)c1cccc(CN2CN(c3ccccc3)C3(CCN(CCCn4c(=O)[nH]c5ccc(Cl)cc54)CC3)C2=O)c1 [Compound 100, 3-((8-(3-(6-Chloro-2-oxo-2,3-dihydro-1H-benzo[d]imidazol-1-yl)propyl)-4-oxo-1-phenyl-1,3,8-triazaspiro[4.5]decan-3-yl)methyl)benzoic acid]	< 10
CC(C)(Oc1ccc(CN2CN(c3ccccc3)C3(CCN(CCCn4c(=O)[nH]c5ccccc54)CC3)C2=O)cc1)C(=O)O [Compound 102, 2-Methyl-2-(4-((4-oxo-8-(3-(2-oxo-2,3-dihydro-1H-benzo[d]imidazol-1-yl)propyl)-1-phenyl-1,3,8-triazaspiro[4.5]decan-3-yl)methyl)phenoxy)propanoic acid]	< 10
O=C(O)c1cccc(CN2CN(c3ccccc3)C3(CCN(CCCn4c(=O)n(C5CC5)c5ccccc54)CC3)C2=O)c1 [Compound 120, 3-((8-(3-(3-Cyclopropyl-2-oxo-2,3-dihydro-1H-benzo[d]imidazol-1-yl)propyl)-4-oxo-1-phenyl-1,3,8-triazaspiro[4.5]decan-3-yl)methyl)benzoic acid]	< 10
CC1(C)C(=O)N(CCCN2CCC3(CC2)C(=O)N(Cc2cccc(C(=O)O)c2)CN3c2ccc(F)cc2)c2ccccc21 [Compound 123, 3-((8-(3-(3,3-Dimethyl-2-oxoindolin-1-yl)propyl)-1-(4-fluorophenyl)-4-oxo-1,3,8-triazaspiro[4.5]decan-3-yl)methyl)benzoic acid]	< 10
O=C(O)c1cccc(CN2CN(c3ccccc3)C3(CCN(CCCN4C(=O)C5(CC5)c5ccccc54)CC3)C2=O)c1 [Compound 130, 3-((4-oxo-8-(3-(2′-oxospiro[cyclopropane-1,3′-indoline]-1′-yl)propyl)-1-phenyl-1,3,8-triazaspiro[4.5]decan-3-yl)methyl)benzoic acid, hydrochloride salt]	< 10
CC1(C)C(=O)N(CCCN2CCC3(CC2)C(=O)N(Cc2ccccc2C(=O)O)CN3c2ccccc2)c2ccccc21 [Compound 137, 2-((8-(3-(3,3-Dimethyl-2-oxoindolin-1-yl)propyl)-4-oxo-1-phenyl-1,3,8-triazaspiro[4.5]decan-3-yl)methyl)benzoic acid]	< 10
O=C(O)c1cccc(CN2CN(c3ccc(F)cc3)C3(CCN(CCCN4C(=O)C5(CC5)c5ccccc54)CC3)C2=O)c1 [Compound 138, 3-((1-(4-Fluorophenyl)-4-oxo-8-(3-(2′-oxospiro[cyclopropane-1,3′-indoline]-1′-yl)propyl)-1,3,8-triazaspiro[4.5]decan-3-yl)methyl)benzoic acid]	< 10
O=C(O)c1cccc(CN2CN(c3ccccc3)C3(CCN(CCCC(=O)c4cccs4)CC3)C2=O)c1 [Compound 143, 3-((4-oxo-8-(4-oxo-4-(thiophen-2-yl)butyl)-1-phenyl-1,3,8-triazaspiro[4.5]decan-3-yl)methyl)benzoic acid, hydrochloride]	< 10
O=C(O)c1cccc(CN2CN(c3ccc(F)cc3)C3(CCN(CCCN4C(=O)Cc5ccccc54)CC3)C2=O)c1 [Compound 145, 3-((1-(4-Fluorophenyl)-4-oxo-8-(3-(2-oxoindolin-1-yl)propyl)-1,3,8-triazaspiro[4.5]decan-3-yl)methyl)benzoic acid]	< 10

— patent US9156840B2, “D2 antagonists, methods of synthesis and methods of use” (ALTOS THERAPEUTICS, LLC, priority 2010, dated 2015)
